Assay results published in ChEMBL document CHEMBL1158999, “Biologically active gamma-lactones and methylketoalkenes from Lindera benzoin” (J Nat Prod, 1992).
Values after ≈ are worked out from the molar mass of the structure shown.

Experiments:
[1] = system: A549; assay: Cytotoxicity against human A549 cells; type: functional; settings: read-out: ED50 (the source's name)
[2] = system: Artemia salina; assay: Toxicity in Artemia salina; type: organism-based; settings: in vivo
[3] = system: HT-29; assay: Cytotoxicity against human HT-29 cells; type: functional; settings: read-out: ED50 (the source's name)
[4] = system: MCF7; assay: Cytotoxicity against human MCF7 cells; type: functional; settings: read-out: ED50 (the source's name)
[5] = system: Agrobacterium tumefaciens; assay: Antitumor activity against Agrobacterium tumefaciens-induced crown gall tumor in potato tubers at by potato disk assay; type: functional
[6] = system: Tetranychus urticae; assay: Insecticidal activity against Tetranychus urticae assessed as mortality at 12 ppm; type: functional
[7] = system: Diabrotica undecimpunctata; assay: Insecticidal activity against Diabrotica undecimpunctata assessed as mortality at 12 ppm; type: functional
[8] = system: Aphis gossypii; assay: Insecticidal activity against Aphis gossypii assessed as mortality at 12 ppm; type: functional
[9] = system: Spodoptera eridania; assay: Insecticidal activity against Spodoptera eridania assessed as mortality at 12 ppm; type: functional

Row | SMILES | EC50 [1] [µg/mL] | LC50 [2] [ppm] | EC50 [3] [µg/mL] | EC50 [4] [µg/mL] | inhibition (INH) [5] [%] | Activity [6] [%] | Activity [7] [%] | Activity [8] [%] | Activity [9] [%]
1 | CCCCC/C=C\C/C=C\CCCC(C)=O | > 10 | 2.9 | > 10 | > 10 |  |  |  |  | 
2 | CC/C=C\C/C=C\C/C=C\CCCC(C)=O | > 10 | 3 | 3.01 (≈ 13.7 µM) | 5.15 (≈ 23.4 µM) |  |  |  |  | 
3 | C=C[C@](C)(O)CC/C=C(/C)CCC=C(C)C | > 10 | 5.75 | > 10 | > 10 |  |  |  |  | 
4 | COc1cccc2c1C(=O)c1c(O)c3c(c(O)c1C2=O)C[C@@](O)(C(=O)CO)C[C@@H]3O[C@H]1C[C@H](N)[C@H](O)[C@H](C)O1 [DOXORUBICIN] | 0.0018 (≈ 0.00331 µM) | 0.088 | 0.012 (≈ 0.0221 µM) | 0.051 (≈ 0.0938 µM) |  |  |  |  | 
5 | C=C1OC(=O)/C(=C/CCCCCCCCCCCCCCC)[C@@H]1O [ISOLINDERANOLIDE] | 4.57 (≈ 13.6 µM) | 0.96 | 3.07 (≈ 9.12 µM) | 3.12 (≈ 9.27 µM) | 44.9 | 0 | 20 | 0 | 0
6 | C=C1OC(=O)/C(=C/CCCC/C=C\CCCCCCCCC)[C@@H]1O [ISOLINDERENOLIDE] | 3.01 (≈ 9 µM) | 0.52 | 1.9 (≈ 5.68 µM) | 2.58 (≈ 7.71 µM) | 41.4 | 0 | 0 | 0 | 0
7 | C=C1OC(=O)/C(=C/CCCCCCCCCCCCC)[C@@H]1O [ISOOBTUSILACTONE A] | 3.75 (≈ 12.2 µM) | 0.72 | 2.48 (≈ 8.04 µM) | 2.31 (≈ 7.49 µM) |  | 0 | 0 | 0 | 0
8 | C=CCCCCCCCCC/C=C1/C(=O)OC(=C)[C@H]1O [ISOOBUTASILACTONE] | > 10 | 0.065 | 2.92 (≈ 10.5 µM) | 4.6 (≈ 16.5 µM) |  | 0 | 0 | 0 | 0
9 | C=C1OC(=O)/C(=C\CCCCCCCCCCCCCCC)[C@@H]1O [LINDERANOLIDE] | 0.928 (≈ 2.76 µM) | 5.23 | 30.5 (≈ 90.6 µM) | 73.6 (≈ 219 µM) |  |  |  |  | 
10 | C=C1OC(=O)/C(=C\CCCCCCCCCCCCC)[C@@H]1O [OBTUSILACTONE A] | > 10 | 0.89 | 2.93 (≈ 9.5 µM) | 5.12 (≈ 16.6 µM) |  | 0 | 0 | 0 | 0
11 | C=CCCCCCCCCC/C=C1\C(=O)OC(=C)[C@H]1O [OBTUSILACTONE] | 3.32 (≈ 11.9 µM) | 0.035 | 3.26 (≈ 11.7 µM) | 4.58 (≈ 16.5 µM) | 64.2 | 0 | 0 | 0 | 0
